According to article PMC5733478, “A Non-imaging High Throughput Approach to Chemical Library Screening at the Unmodified Adenosine-A3 Receptor in Living Cells” (Frontiers in Pharmacology, 2017):
Structures can show the parent of a compound that is named as a salt. Where a SMILES comes first, the peptide text is derived from it. The star is where a group is joined. Cbz = O=C(OCc1ccccc1)*

target: T1, human A3AR (Homo sapiens, UniProt P0DMS8); assay: LOPAC library primary screen: single concentration (10 μM) inhibition of 25 nM CA200645 binding, PHERAstar FS; settings: not given
T1 construct: expressed in transfected cells
T1 sequence (P0DMS8 1-318): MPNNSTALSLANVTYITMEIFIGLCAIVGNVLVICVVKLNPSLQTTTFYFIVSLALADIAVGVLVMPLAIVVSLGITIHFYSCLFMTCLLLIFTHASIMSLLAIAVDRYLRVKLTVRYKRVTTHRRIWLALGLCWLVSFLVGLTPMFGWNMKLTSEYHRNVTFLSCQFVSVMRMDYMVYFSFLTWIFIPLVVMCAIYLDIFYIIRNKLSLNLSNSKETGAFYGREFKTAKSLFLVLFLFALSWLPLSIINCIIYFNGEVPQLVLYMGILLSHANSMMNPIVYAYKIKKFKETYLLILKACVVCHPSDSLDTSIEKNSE

| Molecule | % 25 nM CA200645 binding | % Total CA200645 binding |
| --- | --- | --- |
| Nc1nc2c(cnn2CCc2ccccc2)c2nc(-c3ccco3)nn12 [SCH 58261, reference compound] | 52.5 ± 9.7% | 52.2 ± 5.4% |
| O=c1[nH]c(=O)n([C@H]2C[C@H](O)[C@@H](CO)O2)cc1Br [5-Bromo-2'-deoxyuridine] | 101.6 ± 8.3% | – |
| N#C/C(=C\c1ccc(O)c(O)c1)C(=O)Nc1ccccc1 [Tyrphostin AG 494] | 91.5 ± 7.4% | – |
| CN1CC[C@@]2(C)c3cc(OC(=O)Nc4ccccc4)ccc3N(C)[C@@H]12 [Phenserine] | 81.1 ± 29.6% | – |
| O=C(O)c1cc2cc(F)ccc2[nH]1 [5-Fluoroindole-2-carboxylic acid] | 92.5 ± 8.9% | – |
| CCCn1c(=O)c2c(ncn2C)n(CCC)c1=O [1,3-Dipropyl-7-methylxanthine] | 102.9 ± 21.6% | – |
| N=C(N)NC(=O)c1nc(Cl)c(N2CCCCCC2)nc1N [5-(N,N-hexamethylene)amiloride] | 87.5 ± 4.4% | – |
| Oc1cc(O)cc(/C=C/c2ccc(O)c(O)c2)c1 [Piceatannol] | 79.1 ± 22.1% | – |
| CN(C)c1cc2c(Nc3ccc4c(cnn4Cc4ccccc4)c3)ncnc2cn1 [GW2974] | 57.3 ± 11.9% | – |
| S=C(Nc1ccccc1)Nc1nccs1 [1-Phenyl-3-(2-thiazolyl)-2-thiourea] | 94.0 ± 11.6% | – |
| O=C(c1ccc(F)cc1)C1CCN(CCn2c(=O)[nH]c3ccccc3c2=O)CC1 [Ketanserin tartrate] | 100.1 ± 15.2% | – |
| CCCN1CCOC2c3cc(O)ccc3OCC21.Cl (racemic) [(±)-PD 128,907 hydrochloride] | 103.2 ± 2.1% | – |
| R(-)-Me5 | 100.1 ± 8.0% | – |
| CCCCc1oc2ccccc2c1C(=O)c1cc(I)c(OCCN(CC)CC)c(I)c1 [Amiodarone hydrochloride] | 91.5 ± 10.5% | – |
| Clc1cnc(Oc2ccc(Oc3ncc(Cl)cc3Cl)cc2)c(Cl)c1 [TCPOBOP] | 93.7 ± 8.4% | – |
| CCn1cc(C(=O)O)c(=O)c2cc(F)c(N3CCNC(C)C3)c(F)c21 (stereo not shown) [Lomefloxacin hydrochloride] | 96.9 ± 10.1% | – |
| CCN(CC)C(=O)c1ccc(O)c(OC)c1 [Vanillic acid diethylamide] | 101.7 ± 2.4% | – |
| Cl.c1ccc2c(c1)CCC[C@H]2Nc1nc2ccccc2[nH]1 [NS8593 hydrochloride] | 91.2 ± 11.5% | – |
| COc1ccccc1N1CCN(CCN2C(=O)CC3(CCCC3)CC2=O)CC1.Cl.Cl [BMY 7378 dihydrochloride] | 82.8 ± 23.0% | – |
| CC(C)C(=O)c1c(C(C)C)nn2ccccc12 [Ibudilast] | 82.8 ± 12.0% | – |
| MDL 26,630 trihydrochloride | 124.5 ± 16.5% | – |

| Molecule | % 25 nM CA200645 binding | % Total CA200645 binding |
| --- | --- | --- |
| C[N+](C)(C)CCOC(N)=O [Carbachol] | 103.1 ± 3.5% | – |
| COCCOc1cc2nc[nH]c(=O)c2cc1OCCOC [CP-380736] | 88.0 ± 4.4% | – |
| CCN(CC)CCOC(=O)c1cc(Cl)c(N)cc1OC.Cl [SDZ-205,557 hydrochloride] | 87.0 ± 9.3% | – |
| CNCC[C@H](Oc1ccc(C(F)(F)F)cc1)c1ccccc1.Cl [S-(+)-Fluoxetine hydrochloride] | 102.0 ± 9.9% | – |
| Nc1ccc(CCNc2ncnc3c2ncn3[C@@H]2O[C@H](CO)[C@@H](O)[C@H]2O)cc1 [N6-2-(4-Aminophenyl)ethyladenosine] | 41.0 ± 7.1% | – |
| O=C(O)/C=C/C(=O)O.O=C(O)/C=C/C(=O)O.O=C(O)/C=C/C(=O)O.O=C1CCCN1CC#CCN1CCCC1.O=C1CCCN1CC#CCN1CCCC1 [Oxotremorine sesquifumarate salt] | 101.9 ± 13.3% | – |
| O=C1NC(=O)/C(=C\c2ccc3nccnc3c2)S1 [AS605240] | 83.4 ± 13.4% | – |
| Cl.OCc1c[nH]cn1 [4-Imidazolemethanol hydrochloride] | 101.5 ± 8.2% | – |
| COc1ccc2[nH]c3c(c2c1)CCNC3 | 93.4 ± 1.1% | – |
| CC(=O)S[C@@H]1CC2=CC(=O)CC[C@]2(C)[C@H]2CC[C@@]3(C)[C@@H](CC[C@@]34CCC(=O)O4)[C@H]12 [Spironolactone] | 94.5 ± 9.9% | – |
| CSc1nc(N)c2ncn([C@@H]3O[C@H](COP(=O)([O-])OP(=O)([O-])OP(=O)([O-])[O-])[C@@H](O)[C@H]3O)c2n1.[Na+].[Na+].[Na+].[Na+] | 99.0 ± 0.7% | – |
| CCC1(C)CC(=O)NC1=O (stereo not shown) [Ethosuximide] | 88.4 ± 5.5% | – |
| CC[C@@H]1Cc2cc(O)ccc2C2=C1c1ccc(O)cc1C[C@H]2CC | 85.9 ± 6.0% | – |
| CCN1CCC[C@H]1CNC(=O)c1c(O)c(Cl)cc(Cl)c1OC.O=C(O)C(O)C(O)C(=O)O (racemic) [S(+)-Raclopride L-tartrate] | 98.6 ± 4.9% | – |
| CC(C)[C@H](NC(=O)OCc1ccccc1)C(=O)N[C@H](C=O)Cc1ccccc1 [MDL 28170] (Cbz-Val-Phe-aldehyde) | 96.0 ± 2.8% | – |
| CCN(CC)CC#CCOC(=O)C(O)(c1ccccc1)C1CCCCC1 (stereo not shown) [Oxybutynin Chloride] | 101.0 ± 12.8% | – |
| O=c1cc(-c2ccccc2F)[nH]c2cc3c(cc12)OCO3 [CHM-1 hydrate] | 97.3 ± 5.3% | – |
| CS(=O)(=O)c1cccc(CNc2nc(Nc3ccc4c(c3)CCC(=O)N4)ncc2C(F)(F)F)c1 [PF-573228] | 54.7 ± 30.2% | – |
| O=C(O)CN(CCN(CC(=O)O)CC(=O)O)CCN(CC(=O)O)CC(=O)O [Diethylenetriaminepentaacetic acid] | 99.2 ± 10.9% | – |
| O=C(O)/C=C\C(=O)O.c1cnc(N2CCN(Cc3ccc4c(c3)OCO4)CC2)nc1 [Piribedil maleate] | 97.8 ± 1.7% | – |
| Cl.c1ccc2nc(C3=NCCN3)ccc2c1 [BU224 hydrochloride] | 100.8 ± 7.2% | – |

| Molecule | % 25 nM CA200645 binding | % Total CA200645 binding |
| --- | --- | --- |
| CC(NC(C)(C)C)C(=O)c1cccc(Cl)c1 (stereo not shown) [Bupropion hydrochloride] | 98.9 ± 4.9% | – |
| CCS(=O)(=O)Nc1cccc(C(=C2CCCCC2)c2cnc[nH]2)c1 [A-315456] | 92.6 ± 5.2% | – |
| CNC(=O)Oc1ccc2c(c1)[C@]1(C)CCN(C)[C@@H]1N2C [(-)-Physostigmine] | 99.3 ± 6.1% | – |
| O=C(O)C1=CC(=C(c2ccc(O)c(C(=O)O)c2)c2ccc(O)c(C(=O)O)c2)C=CC1=O [Aurintricarboxylic acid] | 93.7 ± 12.0% | – |
| Cc1cn(C2CC(N=[N+]=[N-])C(CO)O2)c(=O)[nH]c1=O (stereo not shown) [3'-Azido-3'-deoxythymidine] | 82.3 ± 18.1% | – |
| COc1ccccc1CN[C@@H]1CCCN[C@@H]1c1ccccc1.Cl.Cl.O [CP-100263 dihydrochloride hydrate] | 98.5 ± 6.9% | – |
| CC(=O)C(C)=O [2,3-Butanedione] | 101.3 ± 15.0% | – |
| Nc1nc(OCc2ccccc2)c2nc[nH]c2n1 [O6-benzylguanine] | 65.0 ± 6.0% | – |
| Cl.O=C(O)Cc1c[nH]cn1 [Imidazole-4-acetic acid hydrochloride] | 99.3 ± 14.9% | – |
| CCN(c1nc(N)c(C(=O)NC(=N)N)nc1Cl)C(C)C [5-(N-Ethyl-N-isopropyl)amiloride] | 94.1 ± 7.3% | – |
| C[N+](C)(C)CCCCCC[N+](C)(C)C.[Cl-].[Cl-] [Hexamethonium dichloride] | 100.8 ± 9.2% | – |
| Br.CO[C@H]1CC=C2CCN3CCC4=C(CC(=O)OC4)[C@]23C1 [Dihydro-beta-erythroidine hydrobromide] | 94.0 ± 5.4% | – |
| NS(=O)(=O)Cc1noc2ccccc12 [Zonisamide sodium] | 98.6 ± 10.8% | – |
| Clc1ccc2c(N3CCN(CCCN4CCN(c5ccnc6cc(Cl)ccc56)CC4)CC3)ccnc2c1 [Piperaquine tetraphosphate tetrahydrate] | 96.8 ± 7.2% | – |
| C[C@@H]1O[C@@H](O[C@H]2C[C@@H](O)[C@]3(CO)[C@H]4[C@H](O)C[C@]5(C)[C@@H]([C@@H]6COC(=O)C6)CC[C@]5(O)[C@@H]4CC[C@]3(O)C2)[C@H](O)[C@H](O)[C@H]1O [Dihydroouabain] | 102.4 ± 11.9% | – |
| CN[C@H]1CC[C@@H](c2ccc(Cl)c(Cl)c2)c2ccccc21 [Sertraline hydrochloride] | 101.1 ± 11.7% | – |
| O=C(O)CC[N+](=O)[O-] [3-Nitropropionic acid] | 111.3 ± 13.2% | – |
| LY-310,762 hydrochloride | 93.0 ± 7.5% | – |
| c1ccc(-c2ccccn2)nc1 [2,2'-Bipyridyl] | 105.2 ± 7.5% | – |
| O=C(Nc1ccncc1)c1cc([N+](=O)[O-])ccc1Cl [T0070907] | 110.9 ± 6.0% | – |

same assay, conditions: % of control wells (1% DMSO and 25 nM CA200645); compounds at 10 µM; whole live cells expressing the A3AR; mean ± SD, three experiments in duplicate

| % 25 nM CA200645 binding | Molecule |
| --- | --- |
| 49.5± 5.8% | Cc1nc2c([nH]1)c(=O)n(C)c(=O)n2Cc1ccco1 [Furafylline] |
| 100.4 ± 3.8% | NC(=Nc1ccccc1)NC(=O)c1nc(Cl)c(N)nc1N [Phenamil methanesulfonate] |

same assay, conditions: compounds tested at 10 µM; % of control wells (1% DMSO and 25 nM CA200645); […]; mean ± SD, three experiments in duplicate

| Molecule | % 25 nM CA200645 binding |
| --- | --- |
| Cl.O=C(O)C1CCCN(CCC=C(c2ccccc2)c2ccccc2)C1 (stereo not shown) [SKF 89976A hydrochloride] | 95.9 ± 25.1% |

same assay, conditions: compounds tested at 10 µM; % of control wells (1% DMSO and 25 nM CA200645); whole live cells expressing the A3AR; mean ± SD, three experiments in duplicate

| % 25 nM CA200645 binding | Molecule |
| --- | --- |
| 102.2 ± 7.3% | C[N+]1(C)[C@@H]2CC[C@H]1C[C@@H](OC(=O)C(CO)c1ccccc1)C2 (stereo partly shown) [Atropine methyl bromide] |
